Test results: PMC11801377, “A uniquely efficacious type of CFTR corrector with complementary mode of action” (Science Advances, 2024)

Biological target: F508del-CFTR (Homo sapiens, UniProt P13569, DEL508-508)
Test: Halide-sensitive YFP quenching assay in U2OS-F508del-CFTR-YFP cells
Format: cell-based
Design: host or cells: U2OS (PathHunter U2OS-F508del-CFTR MEM-EA)
Conditions: overnight treatment; acute forskolin and IVA 2 nM
Method: U2OS-F508del-CFTR cells expressing Topaz-YFP F46L/H148Q/I152L were seeded at 20,000 cells per well into 384-well black clear-bottom plates in 40 μl per well growth medium (Mc COY’s 5A, Gibco, 10% FBS, penicillin/streptomycin), containing the various CFTR correctors at the indicated concentrations. The cells were coincubated with the compounds for 24 hours (37°C, 5% CO2). The next day, plates were washed twice with PBS^+ (55 μl per well; PBS containing 0.9 mM Ca^2+ and 0.5 mM Mg^2+). PBS^+ was fully removed, and cells were supplemented with 15 μl PBS^+. Then, 5 μl of 4× concentrated stocks of IVA or vehicle in dilution buffer [PBS^+, 0.1 μM forskolin, and 0.2% bovine serum albumin (fatty acid free) (pH 7.4)] were added and incubated for 30 min in the dark. For experiments with I-172 (Sigma- Aldrich), the inhibitor was added to the mix with either IVA or vehicle to reach a final concentration in cells of 20 μM. Then, plates were transferred to the FLIPR Tetra (fluorescence imaging plate reader; Molecular Devices: excitation: 470 to 495 nm; emission: 526 to 585 nm), baseline fluorescence reading of the YFP signal was performed for 6 s (10 × 0.6 s intervals) after which 25 μl of iodide buffer [137 mM NaI, 2.7 mM KCl, 1.5 mM KH2PO4, 8.1 mM Na2HPO4, 1 mM CaCl2, and 0.5 mM MgCl2 (pH 7.4)] was added, and fluorescence reading was continued for 70 s (50 × 0.6 s intervals; 20 x 2 s intervals) to assess YFP quenching through CFTR-mediated iodide influx. For analysis, fluorescence traces were aligned and normalized at the last time point before iodide addition (normalized fluorescence = 1). Normalized fluorescence values obtained 20 s after the beginning of the assay were used to assess the degree of YFP quenching, i.e., CFTR function (see fig. S1J). […] Then, plates were read and analyzed as above. […] Then, plates were transferred to the FLIPR Tetra and read and analyzed as above.

Sequence of F508del-CFTR (P13569 with tags, fused parts or gaps DEL508-508): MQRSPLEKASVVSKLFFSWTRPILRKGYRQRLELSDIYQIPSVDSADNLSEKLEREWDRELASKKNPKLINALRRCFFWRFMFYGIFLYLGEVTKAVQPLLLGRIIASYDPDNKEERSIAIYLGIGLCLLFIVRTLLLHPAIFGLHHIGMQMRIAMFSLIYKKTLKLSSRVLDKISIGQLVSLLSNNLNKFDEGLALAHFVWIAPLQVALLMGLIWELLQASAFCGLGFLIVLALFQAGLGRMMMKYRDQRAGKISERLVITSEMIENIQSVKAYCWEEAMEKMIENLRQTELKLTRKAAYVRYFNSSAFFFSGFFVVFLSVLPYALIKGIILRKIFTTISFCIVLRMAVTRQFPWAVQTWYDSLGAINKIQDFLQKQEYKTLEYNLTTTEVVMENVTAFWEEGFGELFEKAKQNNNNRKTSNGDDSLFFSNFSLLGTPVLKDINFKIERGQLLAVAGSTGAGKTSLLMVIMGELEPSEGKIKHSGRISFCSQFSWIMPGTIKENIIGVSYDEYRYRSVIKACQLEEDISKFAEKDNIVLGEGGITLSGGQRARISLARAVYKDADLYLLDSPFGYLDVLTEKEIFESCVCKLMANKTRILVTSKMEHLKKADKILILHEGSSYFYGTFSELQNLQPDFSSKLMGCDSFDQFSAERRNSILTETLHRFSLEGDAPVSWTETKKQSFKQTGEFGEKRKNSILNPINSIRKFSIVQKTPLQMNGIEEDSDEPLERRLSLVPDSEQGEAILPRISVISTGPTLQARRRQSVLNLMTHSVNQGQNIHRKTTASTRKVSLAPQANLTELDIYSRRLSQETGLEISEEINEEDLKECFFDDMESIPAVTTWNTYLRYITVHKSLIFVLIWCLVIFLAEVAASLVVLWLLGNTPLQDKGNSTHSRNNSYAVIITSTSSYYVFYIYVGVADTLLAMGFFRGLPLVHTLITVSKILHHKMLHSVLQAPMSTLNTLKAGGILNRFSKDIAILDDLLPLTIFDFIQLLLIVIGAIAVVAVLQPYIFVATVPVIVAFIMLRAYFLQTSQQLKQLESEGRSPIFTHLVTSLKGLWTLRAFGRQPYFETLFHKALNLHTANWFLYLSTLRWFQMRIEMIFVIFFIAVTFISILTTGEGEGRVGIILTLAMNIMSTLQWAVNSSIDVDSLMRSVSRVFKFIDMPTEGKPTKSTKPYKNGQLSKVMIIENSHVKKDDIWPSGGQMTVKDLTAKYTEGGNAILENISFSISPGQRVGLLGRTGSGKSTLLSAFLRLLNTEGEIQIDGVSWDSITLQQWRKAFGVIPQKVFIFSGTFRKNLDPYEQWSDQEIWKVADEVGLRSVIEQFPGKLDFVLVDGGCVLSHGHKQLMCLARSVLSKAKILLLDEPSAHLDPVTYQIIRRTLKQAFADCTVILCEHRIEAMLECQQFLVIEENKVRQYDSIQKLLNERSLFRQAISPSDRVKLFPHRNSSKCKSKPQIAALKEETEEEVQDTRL

In the case of `COc1cc(CCNC(=O)C2CC(=O)N(C)C(CC(C)C)C(=O)N3CCCCC3C(=O)NC(Cc3ccccc3)COc3ccc4ncc(F)cc4c3C(=O)N2)on1` (stereo not shown) [IDOR-3], the “F508del-CFTR function (YFP quenching)” value is reported as “strongly increased F508del-CFTR function”.
